Counter-ions that a name gives are not always drawn. Like-named read-outs stand apart in the source and are kept apart here.

Assay type in all cases: cell-based
For test [1], the system named is Thoracic aortic rings. Briefly: Contracting effect on rat aortic rings (organ bath). The following applies: mean ±S.E.M. On the procedure: Thoracic aortic rings obtained from male Wistar rats are carefully cleaned of connective tissue. The aortic rings are suspended in the isolated muscle bath (20 mL). Each segment is suspended under a tension of 1 g in Krebs buffer (NaCl 118 mM, KCl 5.4 mM, CaCl2 2.5 mM, MgCl2.6H2O 1.5 mM, NaHCO3 25 mM, NaH2PO4 1.2 mM, glucose 10 mM; pH 7.4) which was bubbled with O2 95%/CO2 5% at 37° C. in 20 mL organ baths (EMKA Technologies, Paris, France). The muscle tension of aortic rings is isometrically recorded with a force-displacement transducer IT1 (EMKA Technologies, Paris, France). The buffer is renewed at 15 min intervals during the equilibrium period (40 min) before exposing the rings to the TXA2-mimetic U-46619 (20 nM), 8-iso-prostaglandin F2α (1 μM) or serotonin (5-hydroxy-tryptamine, 5-HT, 2 μM). When a stable tension is obtained (15 min), the compound of interest is added at a cumulative increasing concentration to the bath until the tension returned to the baseline value. Tension is recorded with a specific data acquisition program (IOX 1.445, EMKA Technologies, Paris, France). The EC50 value of each drug is assessed for at least 6 concentration-response curves obtained from separate preparations. EC50 is expressed as the concentration which reduces 50% of the tension induced by the contracting agent. The results are expressed as mean ±S.E.M. Nafronyl oxalate was obtained from Sigma-Aldrich; picotamide monohydrate was obtained from the European Directory of Quality of Medicines. […] These values are in line with results obtained in previous studies (S. W. Watts and J. M. Thompson, J Pharmacol Exp Ther 309:165-172, 2004; M. Lohn et al., FASEB J 16:1057-63, 2002).

The test system of test [2] is Thoracic aortic rings precontracted with serotonin. The test can be described thus: Relaxation of rat aortic rings using serotonin 2 μM as contracting agent. The following applies: for EC50: Rattus norvegicus, read-out: EC50 relaxing effect. The method, then:
(§1) Thoracic aortic rings obtained from male Wistar rats are carefully cleaned of connective tissue. The aortic rings are suspended in the isolated muscle bath (20 mL). Each segment is suspended under a tension of 1 g in Krebs buffer (NaCl 118 mM, KCl 5.4 mM, CaCl2 2.5 mM, MgCl2.6H2O 1.5 mM, NaHCO3 25 mM, NaH2PO4 1.2 mM, glucose 10 mM; pH 7.4) which was bubbled with O2 95%/CO2 5% at 37° C. in 20 mL organ baths (EMKA Technologies, Paris, France). The muscle tension of aortic rings is isometrically recorded with a force-displacement transducer IT1 (EMKA Technologies, Paris, France). The buffer is renewed at 15 min intervals during the equilibrium period (40 min) before exposing the rings to the TXA2-mimetic U-46619 (20 nM), 8-iso-prostaglandin F2α (1 μM) or serotonin (5-hydroxy-tryptamine, 5-HT, 2 μM). When a stable tension is obtained (15 min), the compound of interest is added at a cumulative increasing concentration to the bath until the tension returned to the baseline value. Tension is recorded with a specific data acquisition program (IOX 1.445, EMKA Technologies, Paris, France). The EC50 value of each drug is assessed for at least 6 concentration-response curves obtained from separate preparations. EC50 is expressed as the concentration which reduces 50% of the tension induced by the contracting agent. The results are expressed as mean ±S.E.M. Nafronyl oxalate was obtained from Sigma-Aldrich; picotamide monohydrate was obtained from the European Directory of Quality of Medicines. Nafronyl oxalate was confirmed to be a potent serotonin antagonist with an EC50 1.54·10^−8 M for its relaxing effect.

Test [3] deals with rat aorta rings pretreated with 8-iso-prostaglandin F2α. The test can be described thus: Relaxation of rat aortic rings using 8-iso-prostaglandin F2α 1 μM as contracting agent. The method, then: as §1, with “Relaxation experiments on aortas precontracted” for “Nafronyl oxalate was confirmed to be a potent serotonin antagonist”, “8-iso-prostaglandin F2α 1 μM were done with picotamide monohydrate alone in increasing concentrations of 10^−8 M, 10^−7 M, 10^−6 M, 10^−5 M, 10^−4 M, as well as with the same concentrations of picotamide monohydrate in the presence of 1 μM nafronyl.” for “an EC50 1.54·10^−8 M for its relaxing effect.”

The term EC50 denotes the concentration that produces a half-maximal response. As to `CCCCC[C@H](O)/C=C/[C@@H]1[C@H](C/C=C\CCCC(=O)O)[C@@H](O)C[C@H]1O` [8-iso-PGF2α, 8-iso-prostaglandin F2α], in test [1], it took 1 ± 0.1 µM to reach a half-maximal effect (EC50).
Compound `CCCCC[C@H](O)/C=C/[C@@H]1[C@@H](C/C=C\CCCC(=O)O)[C@H]2CO[C@@H]1C2` [U-46619] registered an EC50 in test [1] of 0.0122 ± 0.00268 µM.
For the compound `COc1ccc(C(=O)NCc2cccnc2)cc1C(=O)NCc1cccnc1` [Picotamide monohydrate, N,N′-bis-(3-picolyl)-4-methoxy-isophthalamide], in test [2] (10^−5 M picotamide), the tension reduction was determined as 30%. In addition, the results for the EC50 in test [3] (drug alone) and in test [3] (together with 10^−6 M nafronyl oxalate) were 16.4 µM and 2.34 µM, respectively.
In test [1], `NCCc1c[nH]c2ccc(O)cc12` [serotonin, 5-hydroxy-tryptamine] gave an EC50 of 0.98 ± 0.09 µM.
As to `CCN(CC)CCOC(=O)C(Cc1cccc2ccccc12)CC1CCCO1` (stereo not drawn) [Nafronyl oxalate, 2-diethylaminoethyl 2-(naphthalen-1-ylmethyl)-3-(oxolan-2-yl)propanoate], the 50% effective concentration (EC50) turned out to be 0.0154 µM in test [2] (drug alone), 0.0133 µM in test [2] (in the presence of 10^−6 M picotamide) and 3.88 µM in test [3] (drug alone).
